Article PMC5354814, “In silico and in vitro drug screening identifies new therapeutic approaches for Ewing sarcoma” (Oncotarget, 2016)
Read-outs that look alike come from different tables or passages of the source.

Assays:
Assay type in all cases: cell-based
A673 [1] = test: Hits validation, dose-response cell proliferation (CellTiter-Glo)
Description: (§1) For hits validation and combination study, cells were harvested and aliquoted into 384-well plates at concentrations of 750–1,500 cells per well in a total of 20 μl/well using a Matrix Wellmate (Thermo Scientific). Five μl of culture media containing either vehicles or drug were added to each well the next day (drug concentrations range from 1 nmol/L to 50 μmol/L). For combination study, selected drugs were archived in robotically accessible plates, to which media was added in preparation for addition to master plates by a Nimbus 96 liquid-dispensing workstation (Hamilton). Liquid transfers to dilution and assay plates were handled using the same workstation. Each 384-well master plate contained four 9 by 9 dose-matrix blocks, with eight serial two-fold dilutions (concentrations range from 7.8 nmol/L to 1 μmol/L). Additional wells were reserved for untreated, and vehicle-treated control wells. Cell proliferation was evaluated using Cell-Titer Glo® reagents (Promega). IC50 values were determined for each drug using SigmaPlot (Systat Software). The combination index values were calculated using SigmaPlot (Systat Software) and CompuSyn.

CHLA-258 = test: as above
Description: as §1

COG-E-352 = test: as above
Description: as §1

Hs 822.T. = test: as above
Description: as §1

Hs 863.T. = test: as above
Description: as §1

RD-ES [2] = test: as above
Description: as §1

SK-ES-1 [3] = test: as above; settings: 12-point dose-response 50 μmol/L to 1 nmol/L, mean ± SD
Description: as §1

TC-71 = test: as above
Description: as §1

Hs 919.T. [4] = test: as above
Description: These drugs were chosen based on their known mechanisms and safety profiles. We also tested the synergy between these drug hits (Supplementary Figures S6–S11). […] We evaluated the anti-proliferation effect in combination treatments using the EWS and control cell lines.
as §1

A673 [5] = test: In vitro high-throughput screen of FDA-approved drug library (CellTiter-Glo); settings: 1 μmol/L drug, 72 hours; for inhibition at 1 µM: Homo sapiens, A673, read-out: % Inhibition A673
Description: (§2) We screened, in parallel to the three computational approaches, an FDA-approved drug library containing 2,316 drugs (1,536 unique chemical entities). […] The drug screening study protocol employed is summarized in Supplementary Table S1.
(§3) Cells were grown to 80–90% confluence, harvested and aliquoted into 384-well plates (black μClear microplates, Greiner bio-one, Germany) at concentrations of 750–1,500 cells per well in a total volume of 25 μl/well using a Matrix Wellmate (Thermo Scientific). Cells were cultured for 72 hours in a 5% CO2 atmosphere at 37°C. Aliquots of 25 μl CellTiter-Glo® Reagent (Promega) were added directly to each well, the plates were incubated at room temperature for 20 min and the luminescence signal was measured according to the manufacturer's protocol. The measurements were made using Infinite® M200 Pro plate reader (Tecan, Switzerland). […] Data were normalized to percentage inhibition. […]
(§4) (A) Color scale for drug inhibition values. […]

Hs 919.T. [6] = test: as above; settings: 1 μmol/L drug, 72 hours, control cell line; for inhibition at 1 µM: read-out: % Inhibition Hs 919.T.
Description: as §2, §3, §4

RD-ES [7] = test: as above; settings: 1 μmol/L drug, 72 hours; for inhibition at 1 µM: RD-ES, read-out: % Inhibition RD-ES
Description: as §2, §3, §4

SK-ES-1 [8] = test: as above; settings: 1 μmol/L drug, 72 hours; for inhibition at 1 µM: Homo sapiens, SK-ES1, read-out: % Inhibition SK-ES-1
Description: as §2, §3, §4

[9] = Homo sapiens, A673, 12-point dose-response 50 μmol/L to 1 nmol/L, mean ± SD
[10] = 12-point dose-response 50 μmol/L to 1 nmol/L, mean ± SD
[11] = control cell line, 12-point dose-response, mean ± SD
[12] = RD-ES, 12-point dose-response 50 μmol/L to 1 nmol/L, mean ± SD
[13] = TC-71, 12-point dose-response 50 μmol/L to 1 nmol/L, mean ± SD

Compound	IC50 (A673 [1]; [9]) [µM]	IC50 (CHLA-258; [10]) [µM]	IC50 (COG-E-352; [10]) [µM]	IC50 (Hs 822.T.; [11]) [µM]	IC50 (Hs 863.T.; [11]) [µM]	IC50 (RD-ES [2]; [12]) [µM]	IC50 (SK-ES-1 [3]; Homo sapiens, SK-ES1) [µM]	IC50 (TC-71; [13]) [nM]	IC50 (Hs 919.T. [4]; [11]) [µM]	inhibition at 1 µM (A673 [5]) [%]	inhibition at 1 µM (Hs 919.T. [6]) [%]	inhibition at 1 µM (RD-ES [7]) [%]	inhibition at 1 µM (SK-ES-1 [8]) [%]	other results
COc1cccc2c1C(=O)c1c(O)c3c(c(O)c1C2=O)C[C@@](O)(C(C)=O)C[C@@H]3O[C@H]1C[C@H](N)[C@H](O)[C@H](C)O1 [Daunorubicin]	0.05 ± 0.02	< 0.003	< 0.003	0.15 ± 0.12	0.18 ± 0.08	0.05 ± 0.03	0.04 ± 0.03	4.6 ± 0.4	0.42 ± 0.15					
COc1ccc(C[C@H]2NC[C@H](O)[C@H]2OC(C)=O)cc1 [Anisomycin]		0.08 ± 0.01	0.02 ± 0.01	0.15 ± 0.05	0.2 ± 0.01				0.15 ± 0.02					IC50 (A673 [1]; [10]): 0.12 ± 0.01 µM; IC50 (RD-ES [2]; [10]): 0.15 ± 0.02 µM; IC50 (SK-ES-1 [3]): 0.2 ± 0.01 µM; IC50 (TC-71; [10]): 40 ± 10 nM
COc1c2ccoc2nc2c(OC)c(OCC(O)C(C)(C)O)ccc12 (centres unmarked) [Evoxine]	> 50	> 50	> 50	> 50	> 50	> 50	> 50	> 50000	> 50					
O=C(O)CCC(=O)c1ccc(-c2ccccc2)cc1 [Fenbufen]	> 50	> 50	> 50	> 50	> 50	> 50	> 50	> 50000	> 50					
CN1C[C@H](CO)C=C2c3cccc4[nH]cc(c34)C[C@H]21 [Lysergol]		> 50	> 50	> 50	> 50				> 50					IC50 (A673 [1]; [10]): > 50 µM; IC50 (RD-ES [2]; [10]): > 50 µM; IC50 (SK-ES-1 [3]): > 50 µM; IC50 (TC-71; [10]): > 50000 nM
O=C(Nc1ccc([N+](=O)[O-])cc1Cl)c1cc(Cl)ccc1O [Niclosamide]	7.02 ± 1.23	0.7 ± 0.14	0.42 ± 0.07	15.2 ± 3.51	10.5 ± 2.66	8.54 ± 1.55	12.5 ± 2.36	790 ± 470	10.6 ± 2.84					
CC[C@]1(O)C[C@@H]2CN(CCc3c([nH]c4ccccc34)[C@@](C(=O)OC)(c3cc4c(cc3OC)N(C)[C@H]3[C@@](O)(C(N)=O)[C@H](O)[C@]5(CC)C=CCN6CC[C@]43[C@@H]65)C2)C1 [Vindesine]	< 0.003	< 0.003	< 0.003	0.25 ± 0.01	0.28 ± 0.01	< 0.003	< 0.003	< 3	4.58 ± 0.45					
COC1=C2C[C@@H](C)C[C@H](OC)[C@H](O)[C@@H](C)/C=C(\C)[C@H](OC(N)=O)[C@@H](OC)/C=C\C=C(/C)C(=O)NC(=CC1=O)C2=O [Geldanamycin]	1.93 ± 0.05	< 0.003	< 0.003	> 20	> 20	0.05 ± 0.003	0.03 ± 0.002	< 3	> 20					
COc1cc2nc(N3CCN(C(=O)C4COc5ccccc5O4)CC3)nc(N)c2cc1OC (centres unmarked) [Doxazosin]	5.6 ± 1.52	16.1 ± 6.78	17.1 ± 6.58	15.7 ± 2.12	14.6 ± 3.02	> 25	20.4 ± 5.87	22500 ± 9350	18.5 ± 3.27					
CN1CCN(CCCN2c3ccccc3Sc3ccc(C(F)(F)F)cc32)CC1 [Trifluoperazine]	15.6 ± 3.55	13.6 ± 4.8	12.1 ± 1.58	10.6 ± 2.45	9.84 ± 2.28	18.2 ± 2.54	16.7 ± 3.14	16400 ± 3460	16.8 ± 4.2					
CC1=CC(=O)c2ccccc2C1=O [Menadione]	6.8 ± 1.35	3.64 ± 2.08	5.62 ± 1.31	12.2 ± 2.12	14.2 ± 3.2	10.6 ± 3.2	5.56 ± 1.24	2940 ± 3480	15.8 ± 2.35					
OCCN1CCN(CCCN2c3ccccc3Sc3ccc(C(F)(F)F)cc32)CC1 [Fluphenzaine]		19 ± 6.79	16.1 ± 7.51	22.7 ± 7.23	20.5 ± 2.88				15.5 ± 3.68					IC50 (A673 [1]; [10]): 10.5 ± 2.89 µM; IC50 (RD-ES [2]; [10]): 14.3 ± 3.21 µM; IC50 (SK-ES-1 [3]): 16.3 ± 3.66 µM; IC50 (TC-71; [10]): 17000 ± 6680 nM
COc1ccc(C[C@H](N)C(=O)N[C@H]2[C@@H](O)[C@H](n3cnc4c(N(C)C)ncnc43)O[C@@H]2CO)cc1 [Puromycin]	0.25 ± 0.01	0.06 ± 0.02	0.05 ± 0.01	0.55 ± 0.13	1.02 ± 0.26	0.35 ± 0.03	0.35 ± 0.1	80 ± 50	0.89 ± 0.03					
COc1c(C)c2c(c(O)c1C/C=C(\C)CCC(=O)O)C(=O)OC2 [Mycophenolic Acid]										< 50	< 50	52	< 50	
CCC(C)(C)c1ccc(CC(C)CN2C[C@@H](C)O[C@@H](C)C2)cc1 (some centres unmarked) [Amorolfine]										56	< 50	< 50	< 50	
CC[C@@]1(O)C(=O)OCc2c1cc1n(c2=O)Cc2cc3ccccc3nc2-1 [Camptothecine (S,+)]														% Inhibition A673 (A673 [5]): 99%; % Inhibition Hs 919.T. (Hs 919.T. [6]): < 50%; % Inhibition RD-ES (RD-ES [7]): 97%; % Inhibition SK-ES-1 (SK-ES-1 [8]): 96%
(R)-Apomorphine														IC50 (A673 [1]): 8.52 ± 2.14 µM; IC50 (CHLA-258): 14.7 ± 6.86 µM; IC50 (COG-E-352): 4.01 ± 1.55 µM; IC50 (Hs 822.T.): 14.3 ± 1.47 µM; IC50 (Hs 863.T.): 15.2 ± 2.19 µM; IC50 (RD-ES [2]): 7.85 ± 1.69 µM; IC50 (TC-71): 17300 ± 2210 nM; IC50 (Hs 919.T. [4]): 16.7 ± 3.02 µM
CCc1c2c(nc3ccc(OC(=O)N4CCC(N5CCCCC5)CC4)cc13)-c1cc3c(c(=O)n1C2)COC(=O)[C@]3(O)CC.Cl [Irinotecan Hydrochloride]														% Inhibition A673 (A673 [5]): 83%; % Inhibition Hs 919.T. (Hs 919.T. [6]): < 50%; % Inhibition RD-ES (RD-ES [7]): 99%; % Inhibition SK-ES-1 (SK-ES-1 [8]): 98%
N[C@@H](Cc1ccc(N(CCCl)CCCl)cc1)C(=O)O [Melphalan]										< 50	< 50	95	91	
C[C@@H]1C[C@@H]([C@H](O)CC2CC(=O)NC(=O)C2)C(=O)[C@@H](C)C1 [Cycloheximide]										77	< 50	74	81	
Nc1nc(Cl)nc2c1ncn2[C@H]1C[C@H](O)[C@@H](CO)O1 [Cladribine]										87	< 50	99	89	
CCOC(=O)C1=C[C@@H](OC(CC)CC)[C@H](NC(C)=O)[C@@H](N)C1 [Oseltamivir]										95	< 50	95	98	
S=c1[nH]cnc2nc[nH]c12 [Mercaptopurine]										< 50	< 50	< 50	57	
CC(=O)O[C@H]1C(=O)[C@@]2(C)[C@H]([C@H](OC(=O)c3ccccc3)[C@]3(O)C[C@H](OC(=O)[C@H](O)[C@@H](NC(=O)c4ccccc4)c4ccccc4)C(C)=C1C3(C)C)[C@]1(OC(C)=O)CO[C@@H]1C[C@@H]2O [Paclitaxel/Taxol, Paclitaxel]										96	< 50	97	96	
CN(Cc1cnc2nc(N)nc(N)c2n1)c1ccc(C(=O)N[C@@H](CCC(=O)O)C(=O)O)cc1 [L-Glutamic acid, N-[4-[[(2,4-diamino-6-pteridinyl)methyl]methylamino]benzoyl]]														% Inhibition A673 (A673 [5]): 85%; % Inhibition Hs 919.T. (Hs 919.T. [6]): < 50%; % Inhibition RD-ES (RD-ES [7]): 77%; % Inhibition SK-ES-1 (SK-ES-1 [8]): 57%
Nc1nc(=S)c2ncn([C@@H]3O[C@H](CO)[C@@H](O)[C@H]3O)c2[nH]1 [Thioguanosine]										73	< 50	< 50	64	
